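Compound exposure: 48 hours, 5 concentrations, 96-well plates. The concentration for 50% growth inhibition is given as GI50. TGI is the concentration that stops growth completely.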
What was measured:
Experiment in all cases: NCI-60 cell line screen, 48 h
[1] = test system: 786-0 renal
[2] = test system: A549 NSCLC
[3] = test system: KM12 colon
[4] = test system: NCI-H460 lung
[5] = test system: SF-295 CNS
[6] = test system: SK-MEL-5 melanoma
[7] = test system: SW-620 colon
[8] = test system: HCC-2998 colon

For `O=C(Nc1cc(Cl)ccc1Cl)c1cc2ccccc2oc1=O`, the TGI [1] was greater than 100 µM, the TGI [2] was greater than 100 µM and the TGI [3] was greater than 100 µM. It also gave a TGI [4] greater than 100 µM, a TGI [5] greater than 100 µM and a TGI [6] greater than 100 µM. The TGI [7] was greater than 100 µM.
In the case of `CCCCP1(=O)C=CC(Cl)=C(C)C1` (stereo not given), the TGI [1] is reported as greater than 100 µM, the TGI [2] is reported as greater than 100 µM and the TGI [8] is reported as greater than 100 µM. The TGI [3] was greater than 100 µM, the TGI [4] was greater than 100 µM and the TGI [5] was greater than 100 µM. The TGI [6] was greater than 100 µM and the TGI [7] was greater than 100 µM.
Work on `O=c1[nH]c(-c2ccncc2)nc2sc3c(c12)CCCCCC3` yielded a GI50 [1] greater than 100000 nM, a TGI [1] greater than 100 µM and a GI50 [2] greater than 100000 nM. For the same compound, the TGI [2] was greater than 100 µM, the GI50 [8] was greater than 100 µM and the TGI [8] was greater than 100 µM. The GI50 [3] was greater than 100000 nM, the TGI [3] was greater than 100 µM and the GI50 [4] was greater than 100000 nM. For the same compound, the TGI [4] was greater than 100 µM, the GI50 [6] was greater than 100000 nM and the TGI [6] was greater than 100 µM. The GI50 [7] was greater than 100000 nM and the TGI [7] was greater than 100 µM.
`COc1cc(Br)c(C2OCCCO2)cc1OCc1ccccc1` gave a TGI [1] greater than 100 µM, a TGI [2] greater than 100 µM and a TGI [3] greater than 100 µM. For the same compound, the TGI [4] was greater than 100 µM, the TGI [5] was greater than 100 µM and the TGI [6] was greater than 100 µM. The TGI [7] was greater than 100 µM.
`C/C(=N\NC(N)=S)c1ccc(Oc2ccccc2)cc1` showed a TGI [1] of 14.5 µM, a TGI [2] of 74.4 µM and a TGI [8] of 28.7 µM. The TGI [4] was 42.6 µM, the TGI [5] was 38.4 µM and the TGI [6] was 18.8 µM. It also gave a TGI [7] of 53.9 µM.
`O=P(c1ccccc1)(c1ccccc1)C1CC=C2CCCCCC2C1` (stereo not given) showed a TGI [1] of 51 µM, a TGI [2] greater than 10 µM and a TGI [3] greater than 100 µM. For the same compound, the TGI [4] was greater than 100 µM, the TGI [5] was greater than 100 µM and the TGI [6] was 46.1 µM. The TGI [7] was greater than 10 µM.
`BrC(/C=N/Nc1nnc(-c2ccccc2)c(-c2ccccc2)n1)C(Br)c1ccccc1` (stereo not given) gave a TGI [1] greater than 100 µM, a TGI [2] greater than 100 µM and a TGI [8] greater than 100 µM. The TGI [3] was greater than 100 µM, the TGI [4] was greater than 100 µM and the TGI [5] was greater than 100 µM. For the same compound, the TGI [6] was 57.9 µM and the TGI [7] was greater than 100 µM.
In the case of `COc1ccc2c(c1)c(-c1nc(-c3cn(C)c4ncccc34)cs1)cn2CCCCN1CCCCC1`, the GI50 [1] is reported as 1610 nM, the TGI [1] is reported as 3.06 µM and the GI50 [2] is reported as 1740 nM. It also gave a TGI [2] of 3.21 µM, a GI50 [3] of 1700 nM and a TGI [3] of 3.15 µM. The GI50 [4] was 1680 nM, the TGI [4] was 3.2 µM and the GI50 [6] was 1710 nM. For the same compound, the TGI [6] was 3.08 µM, the GI50 [7] was 1620 nM and the TGI [7] was 2.99 µM.
`CCc1cccc(CC)c1NC1=CC(=O)C(=O)c2ccccc21` was tested, and the TGI [1] was 44.9 µM, the TGI [2] was 37.8 µM and the TGI [8] was 28.8 µM. The TGI [3] was 33.2 µM, the TGI [4] was 48.8 µM and the TGI [5] was 28.3 µM. The TGI [6] was 21.6 µM and the TGI [7] was 31.7 µM.
Compound `C=CC(C)(C)[C@@]12CC3C(=O)N[C@@H](Cc4ccccc4)C(=O)N3[C@@H]1N(C(C)=O)c1ccccc12` (stereo not given in full) has a TGI [1] greater than 100 µM, a TGI [2] greater than 100 µM and a TGI [3] greater than 100 µM. The TGI [4] was greater than 100 µM, the TGI [5] was greater than 100 µM and the TGI [6] was greater than 100 µM. It also gave a TGI [7] greater than 100 µM.

From PubChem BioAssay (NCI)
